US20060069132A1, “Azolecarboxamide herbicides” (priority 2004, published 2006)

How the values were obtained:
Test in all cases: Test E pre-/postemergence herbicide test
Italian ryegrass = type: in vivo, Lolium multiflorum
Method in brief: (§1)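 Test chemicals in a non-phytotoxic solvent mixture with surfactant applied preemergence to planted seeds and postemergence to plants 2 to 18 cm tall (1- to 4-leaf stage). After 12 to 14 days in the greenhouse, injury rated visually against untreated controls on a 0–100 scale (0 no effect, 100 complete control).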

kochia = type: in vivo, Kochia scoparia
Method in brief: as §1

common purslane = type: in vivo, Portulaca oleracea
Method in brief: as §1

Russian thistle = type: in vivo, Salsola kali
Method in brief: as §1

large crabgrass = type: in vivo, Digitaria sanguinalis
Method in brief: as §1

tropical spiderwort = type: in vivo, Commelina benghalensis
Method in brief: as §1

southern sandbur = type: in vivo, Cenchrus echinatus
Method in brief: as §1

purple nutsedge = type: in vivo, Cyperus rotundus
Method in brief: as §1

bipinnate beggarticks = type: in vivo, Bidens bipinnata; settings: Preemergence
Description: Seeds of plant species selected from bipinnate beggarticks (Bidens bipinnata L.), hairy beggarticks (Bidens radiata Thuill.), bermudagrass (Cynodon dactylon (L.) Pers.), Surinam grass (Urochloa decumbens (Staph) R. D. Webster, previously named Brachiaria decumbens Stapf), large crabgrass (Digitaria sanguinalis (L.) Scop.), green foxtail (Setaria viridis (L.) P. Beauv.), goosegrass (Eleusine indica (L.) Gaertn.), johnsongrass (Sorghum halepense (L.) Pers.), kochia (Kochia scoparia (L.) Schrad.), pitted morningglory (Ipomoea lacunosa L.), purple nutsedge (Cyperus rotundus L.), common ragweed (Ambrosia elatior L.), mustard (Brassica nigra (L.) W. D. J. Koch), guineagrass (Panicum maximum Jacq.), dallisgrass (Paspalum dilatatum Poir.), barnyardgrass (Echinochloa crus-galli (L). P. Beauv.), southern sandbur (Cenchrus echinatus L.), common sowthistle (Sonchus oleraceous L.), prickly sida (Sida spinosa L.), Italian ryegrass (Lolium multiflorum Lam.), common purslane (Portulaca oleracea L.), broadleaf signalgrass (Brachiaria platyphylla (Griseb.) Nash), common groundsel (Senecio vulgaris L.), common chickweed (Stellaria media (L.) Vill/Cyr.), tropical spiderwort (Commelina benghalensis L.), annual bluegrass (Poa annua L.), downy bromegrass (Bromus tectorum L.), itchgrass (Rottboellia cochinchinensis (L.) L.f.), quackgrass (Elytrigia repens (L.) Nevski), Canada horseweed (Erigeron Canadensis L.), field bindweed (Convolvulus arvensis L.), spotted spurge (Euphorbia maculata L.), common mallow (Malva sylvestris (=s silvestris) L.), and Russian thistle (Salsola kali L. ssp. Ruthenica (Iljin) Soo) were planted and treated preemergence with test chemicals formulated in a non-phytotoxic solvent mixture which included a surfactant.
At the same time, plants selected from these weed species were treated with postemergence applications of some of the test chemicals formulated in the same manner. Plants ranged in height from 2 to 18 cm (1- to 4-leaf stage) for postemergence treatments. Treated plants and controls were maintained in a greenhouse for 12 to 14 days, after which time all species were compared to controls and visually evaluated. Plant response ratings, summarized in Table E, are based on a scale of 0 to 100 where 0 is no effect and 100 is complete control. A dash (-) response means no test result.

prickly sida = type: in vivo, Sida spinosa; settings: Preemergence
Method in brief: as §1

[1] = Postemergence, 500 g ai/ha, scale 0 to 100
[2] = Postemergence, 250 g ai/ha, scale 0 to 100
[3] = Preemergence, 62 g ai/ha, scale 0 to 100
[4] = Preemergence, 125 g ai/ha, scale 0 to 100
[5] = Preemergence, 250 g ai/ha, scale 0 (no effect) to 100 (complete control)
[6] = Preemergence, 500 g ai/ha, scale 0 (no effect) to 100 (complete control)
[7] = postemergence, 125 g ai/ha, scale 0 to 100
[8] = postemergence, 62 g ai/ha, scale 0 to 100
[9] = 250 g ai/ha, scale 0 (no effect) to 100 (complete control)

CCn1nc(C(C)(C)C)cc1C(=O)Nc1cc(C(=O)N(C)C)ccn1 [Compound 156, 2-[[[3-(1,1-dimethylethyl)-1-ethyl-1H-pyrazol-5-yl]carbonyl]amino]-N,N-dimethyl-4-pyridinecarboxamide]
20: Plant response rating, Spiderwort (tropical spiderwort; [8])
90: Plant response rating, Ryegrass, Italian (Italian ryegrass; [8]) | Plant response rating, Crabgrass, Large (large crabgrass; [4]) | Plant response rating, Nutsedge, Purple (purple nutsedge; [2])
35: Plant response rating, Crabgrass, Large (large crabgrass; [8])
30: Plant response rating, Spiderwort (tropical spiderwort; [3]) | Plant response rating, Spiderwort (tropical spiderwort; [7])
50: Plant response rating, Spiderwort (tropical spiderwort; [2]) | Plant response rating, Spiderwort (tropical spiderwort; [4]) | Plant response rating, Spiderwort (tropical spiderwort; [5]) | Plant response rating, Sandbur (southern sandbur; [3])
98: Plant response rating, Ryegrass, Italian (Italian ryegrass; [1]) | Plant response rating, Ryegrass, Italian (Italian ryegrass; [2]) | Plant response rating, Crabgrass, Large (large crabgrass; [1]) | Plant response rating, Sandbur (southern sandbur; [1])
0: Plant response rating, Sandbur (southern sandbur; [8])
80: Plant response rating, Thistle (Russian thistle; [2]) | Plant response rating, Thistle (Russian thistle; [3]) | Plant response rating, Crabgrass, Large (large crabgrass; [7]) | Plant response rating, Spiderwort (tropical spiderwort; [6]) | Plant response rating, Sandbur (southern sandbur; [2]) | Plant response rating, Sandbur (southern sandbur; [6])
100: Plant response rating, Ryegrass, Italian (Italian ryegrass; [5]) | Plant response rating, Ryegrass, Italian (Italian ryegrass; [6]) | Plant response rating, Kochia (kochia; [1]) | Plant response rating, Kochia (kochia; [2]) | Plant response rating, Kochia (kochia; [3]) | Plant response rating, Kochia (kochia; [4]) | Plant response rating, Kochia (kochia; [5]) | Plant response rating, Kochia (kochia; [6]) | Plant response rating, Kochia (kochia; [7]) | Plant response rating, Purslane (common purslane; [1]) | Plant response rating, Purslane (common purslane; [2]) | Plant response rating, Purslane (common purslane; [3]) | Plant response rating, Purslane (common purslane; [4]) | Plant response rating, Purslane (common purslane; [5]) | Plant response rating, Purslane (common purslane; [6]) | Plant response rating, Purslane (common purslane; [7]) | Plant response rating, Thistle (Russian thistle; [4]) | Plant response rating, Thistle (Russian thistle; [6])
60: Plant response rating, Ryegrass, Italian (Italian ryegrass; [3]) | Plant response rating, Sandbur (southern sandbur; [4])
65: Plant response rating, Spiderwort (tropical spiderwort; [1])
75: Plant response rating, Purslane (common purslane; [8]) | Plant response rating, Sandbur (southern sandbur; [5]) | Plant response rating, Sandbur (southern sandbur; [7]) | Plant response rating, Nutsedge, Purple (purple nutsedge; [7])
95: Plant response rating, Ryegrass, Italian (Italian ryegrass; [4]) | Plant response rating, Ryegrass, Italian (Italian ryegrass; [7]) | Plant response rating, Crabgrass, Large (large crabgrass; [2]) | Plant response rating, Crabgrass, Large (large crabgrass; [5]) | Plant response rating, Crabgrass, Large (large crabgrass; [6]) | Plant response rating, Nutsedge, Purple (purple nutsedge; [6])

CCc1nn(C(C)C)nc1C(=O)Nc1cccc(C(=O)N(C)CC)c1 [Compound 386]
10: Plant response rating, Spiderwort (tropical spiderwort; [4])
100: Plant response rating, Purslane (common purslane; [4]) | Plant response rating, Purslane (common purslane; [5]) | Plant response rating, Prickly Sida (prickly sida; 125 g ai/ha, scale 0 to 100) | Plant response rating, Prickly Sida (prickly sida; [9])
60: Plant response rating, Ryegrass, Italian (Italian ryegrass; [4])
70: Plant response rating, Spiderwort (tropical spiderwort; [5])
40: Plant response rating, Beggarticks, Bip. (bipinnate beggarticks; [9]) | Plant response rating, Sandbur (southern sandbur; [4]) | Plant response rating, Sandbur (southern sandbur; [5])
95: Plant response rating, Ryegrass, Italian (Italian ryegrass; [5]) | Plant response rating, Crabgrass, Large (large crabgrass; [4]) | Plant response rating, Crabgrass, Large (large crabgrass; [5])

CCc1nn(C(C)C)nc1C(=O)Nc1cccc(C(=O)N2CCCCC2)c1 [Compound 385]
30: Plant response rating, Ryegrass, Italian (Italian ryegrass; [4]) | Plant response rating, Beggarticks, Bip. (bipinnate beggarticks; 125 g ai/ha, scale 0 to 100) | Plant response rating, Beggarticks, Bip. (bipinnate beggarticks; [9])
80: Plant response rating, Crabgrass, Large (large crabgrass; [3]) | Plant response rating, Crabgrass, Large (large crabgrass; [4]) | Plant response rating, Crabgrass, Large (large crabgrass; [5])
0: Plant response rating, Beggarticks, Bip. (bipinnate beggarticks; 62 g ai/ha, scale 0 to 100) | Plant response rating, Spiderwort (tropical spiderwort; [4]) | Plant response rating, Spiderwort (tropical spiderwort; [5]) | Plant response rating, Sandbur (southern sandbur; [3])
60: Plant response rating, Ryegrass, Italian (Italian ryegrass; [5])
100: Plant response rating, Purslane (common purslane; [3]) | Plant response rating, Purslane (common purslane; [4]) | Plant response rating, Purslane (common purslane; [5]) | Plant response rating, Prickly Sida (prickly sida; 125 g ai/ha, scale 0 to 100) | Plant response rating, Prickly Sida (prickly sida; [9])
10: Plant response rating, Ryegrass, Italian (Italian ryegrass; [3]) | Plant response rating, Prickly Sida (prickly sida; 62 g ai/ha, scale 0 to 100) | Plant response rating, Sandbur (southern sandbur; [4])
50: Plant response rating, Thistle (Russian thistle; [4])
40: Plant response rating, Sandbur (southern sandbur; [5])
